The test addresses Delta-type opioid receptor (Homo sapiens, UniProt P41143). The test is described as follows: In vitro binding affinity against cloned human Opioid receptor delta 1 expressed in HEK 293S cells.

This note sets out measurements from BindingDB's records for doi:10.1021/jm020164l (University of Montreal, 2002).

Chain of Delta-type opioid receptor (P41143 whole entry): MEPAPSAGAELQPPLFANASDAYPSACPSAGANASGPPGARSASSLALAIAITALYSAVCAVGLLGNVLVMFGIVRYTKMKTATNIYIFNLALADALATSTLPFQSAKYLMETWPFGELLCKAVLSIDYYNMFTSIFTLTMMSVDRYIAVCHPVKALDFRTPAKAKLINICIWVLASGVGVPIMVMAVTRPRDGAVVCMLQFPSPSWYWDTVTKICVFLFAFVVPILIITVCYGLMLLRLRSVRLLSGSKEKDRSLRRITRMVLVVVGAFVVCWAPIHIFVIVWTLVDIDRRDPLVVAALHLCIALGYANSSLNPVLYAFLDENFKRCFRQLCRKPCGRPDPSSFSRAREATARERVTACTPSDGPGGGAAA

One may read the IC50 as the point on the concentration scale where inhibition reaches its midpoint. As to `C[C@H]1C2C3=CC=CCC3[C@@H](Cc3ccccc32)N1C` (stereo partly drawn) [16,17-dimethyl-(16S)-17-azatetracyclo[7.6.2.02,7.010,15]heptadeca-2(7),3,5,12,14-pentaene], the IC50 was above 10 µM.
